Results as given in US10052320B2, “Substituted quinoxalines as FGFR kinase inhibitors” (ASTEX THERAPEUTICS LIMITED, priority 2011, dated 2018).

How the values were obtained:
FGFR2 (h) = FGFR2 (h) (Homo sapiens, UniProt P21802); assay: FGFR2 (enzymatic assay), TR-FRET; type: biochemical; conditions: read-out: FGFR 2 pIC50 (converted)
Experimental: In a final reaction volume of 30 μL, FGFR2 (h) (150 ng/ml) was incubated with 50 mM HEPES pH 7.5, 6 mM MnCl2, 1 mM DTT, 0.1 mM Na3VO4, 0.01% Triton-X-100, 500 nM Btn-Flt3 and 0.4 μM ATP in the presence of compound (1% DMSO final). […] Time-Resolved Fluorescence Resonance Energy Transfer (TR-FRET) signal (ex340 nm. Em 620 nm, em 655 nm) was measured afterwards and results are expressed in (Relative Fluorescence Units).

FGFR3 (h) = FGFR3 (h) (Homo sapiens, UniProt P22607); assay: FGFR3 (enzymatic assay), TR-FRET; type: biochemical; conditions: read-out: FGFR 3 pIC50 (converted)
Experimental: In a final reaction volume of 30 μL, FGFR3 (h) (40 ng/ml) was incubated with 50 mM HEPES pH 7.5, 6 mM MnCl2, 1 mM DTT, 0.1 mM Na3VO4, 0.01% Triton-X-100, 500 nM Btn-Flt3 and 25 μM ATP in the presence of compound (1% DMSO final). […] Time-Resolved Fluorescence Resonance Energy Transfer (TR-FRET) signal (ex340 nm. Em 620 nm, em 655 nm) was measured afterwards and results are expressed in RFU (Relative Fluorescence Units).

KDR (h) (VEGFR2) = KDR (h) (VEGFR2) (Homo sapiens, UniProt P35968); assay: KDR (VEGFR2) (enzymatic assay), TR-FRET; type: biochemical
Experimental: KDR (VEGFR2) (Enzymatic Assay)
In a final reaction volume of 30 μL, KDR (h) (150 ng/ml) was incubated with 50 mM HEPES pH 7.5, 6 mM MnCl2, 1 mM DTT, 0.1 mM Na3VO4, 0.01% Triton-X-100, 500 nM Btn-Flt3 and 3 μM ATP in the presence of compound (1% DMSO final). After incubation for 120 minutes at room temperature the reaction was stopped with 2.27 nM EU-anti P-Tyr, 7 mM EDTA, 31.25 nM SA-XL-665 and 0.02% BSA which was present for 60 minutes at room temperature. Time-Resolved Fluorescence Resonance Energy Transfer (TR-FRET) signal (ex340 nm. Em 620 nm, em 655 nm) was measured afterwards and results are expressed in RFU (Relative Fluorescence Units).

[1] = target: Ba/F3-FGFR3-transfected cells (Homo sapiens, UniProt P22607); assay: Ba/F3-FGFR3 (minus IL3) cellular proliferation assay, Alamar Blue; type: cell-based; conditions: for BAF3-FGFR 3 (MIN IL3) 384 well pIC50: minus IL3, 384 well; for BAF3-FGFR 3 (MIN IL3) 96 well pIC50: minus IL3, 96 well
Experimental: Ba/F3-FGFR3 (Minus IL3 or Plus IL3) (Cellular Proliferation Assay)
Cells were put in an incubator at 37° C. and 5% CO2. After 24 hours, 10 μl of Alamar Blue solution (0.5 mM K3Fe(CN)6, 0.5 mM KaFe(CN)6, 0.15 mM Resazurin and 100 mM Phosphate Buffer) was added to the wells, incubated for 4 hours at 37° C. and 5% CO2 before RFU's (Relative Fluorescence Units) (ex. 540 nm., em. 590 nm.) were measured in a flurorescence plate reader. […]
(§1) In a 96 well plate, 180 μl cell culture medium (phenol red free RPMI-1640, 10% FBS, 2 mM L-Glutamine and 50 μg/ml Gentamycin) containing 10000 cells per well of Ba/F3-FGFR3-transfected cells were pipette and 20 μl of compound dilution in DMSO was added. Cells were put in an incubator at 37° C. and 5% CO2. After 24 hours, 40 μl of Alamar Blue solution (0.5 mM K3Fe(CN)6, 0.5 mM KaFe(CN)6, 0.15 mM Resazurin and 100 mM Phosphate Buffer) was added to the wells, incubated for 4 hours at 37° C. and 5% CO2 before RFU's (Relative Fluorescence Units) (ex. 540 nm., em. 590 nm.) were measured in a flurorescence plate reader.

[2] = test system: Ba/F3-Flt3-transfected cells in the presence of 10 ng/ml murine IL3; assay: Ba/F3-Flt3 (plus IL3) cellular proliferation counterscreen, Alamar Blue; type: cell-based; conditions: plus 10 ng/ml murine IL3; for IC50: Mus musculus, read-out: BAF3-FLT3 (PLUS IL3) 384 well pIC50 (converted)
Experimental: Ba/F3-Flt3 (Minus IL3 or Plus IL3) (Cellular Proliferation Assay)
as §1, with “a 384” for “a 96”, “plate, 100 nl of compound dilution in DMSO was sprayed before adding 50” for “plate, 180”, “containing 20000” for “containing 10000”, “of Ba/F3-Flt3-transfected cells.” for “of Ba/F3-FGFR3-transfected cells were pipette and 20 μl of compound dilution in DMSO was added.”, “hours, 10” for “hours, 40”
As a counterscreen the same experiment was performed in the presence of 10 ng/ml murine IL3.
as §1, with “Ba/F3-Flt3-transfected” for “Ba/F3-FGFR3-transfected”

Chain of KDR (h) (VEGFR2) (P35968 20-1356): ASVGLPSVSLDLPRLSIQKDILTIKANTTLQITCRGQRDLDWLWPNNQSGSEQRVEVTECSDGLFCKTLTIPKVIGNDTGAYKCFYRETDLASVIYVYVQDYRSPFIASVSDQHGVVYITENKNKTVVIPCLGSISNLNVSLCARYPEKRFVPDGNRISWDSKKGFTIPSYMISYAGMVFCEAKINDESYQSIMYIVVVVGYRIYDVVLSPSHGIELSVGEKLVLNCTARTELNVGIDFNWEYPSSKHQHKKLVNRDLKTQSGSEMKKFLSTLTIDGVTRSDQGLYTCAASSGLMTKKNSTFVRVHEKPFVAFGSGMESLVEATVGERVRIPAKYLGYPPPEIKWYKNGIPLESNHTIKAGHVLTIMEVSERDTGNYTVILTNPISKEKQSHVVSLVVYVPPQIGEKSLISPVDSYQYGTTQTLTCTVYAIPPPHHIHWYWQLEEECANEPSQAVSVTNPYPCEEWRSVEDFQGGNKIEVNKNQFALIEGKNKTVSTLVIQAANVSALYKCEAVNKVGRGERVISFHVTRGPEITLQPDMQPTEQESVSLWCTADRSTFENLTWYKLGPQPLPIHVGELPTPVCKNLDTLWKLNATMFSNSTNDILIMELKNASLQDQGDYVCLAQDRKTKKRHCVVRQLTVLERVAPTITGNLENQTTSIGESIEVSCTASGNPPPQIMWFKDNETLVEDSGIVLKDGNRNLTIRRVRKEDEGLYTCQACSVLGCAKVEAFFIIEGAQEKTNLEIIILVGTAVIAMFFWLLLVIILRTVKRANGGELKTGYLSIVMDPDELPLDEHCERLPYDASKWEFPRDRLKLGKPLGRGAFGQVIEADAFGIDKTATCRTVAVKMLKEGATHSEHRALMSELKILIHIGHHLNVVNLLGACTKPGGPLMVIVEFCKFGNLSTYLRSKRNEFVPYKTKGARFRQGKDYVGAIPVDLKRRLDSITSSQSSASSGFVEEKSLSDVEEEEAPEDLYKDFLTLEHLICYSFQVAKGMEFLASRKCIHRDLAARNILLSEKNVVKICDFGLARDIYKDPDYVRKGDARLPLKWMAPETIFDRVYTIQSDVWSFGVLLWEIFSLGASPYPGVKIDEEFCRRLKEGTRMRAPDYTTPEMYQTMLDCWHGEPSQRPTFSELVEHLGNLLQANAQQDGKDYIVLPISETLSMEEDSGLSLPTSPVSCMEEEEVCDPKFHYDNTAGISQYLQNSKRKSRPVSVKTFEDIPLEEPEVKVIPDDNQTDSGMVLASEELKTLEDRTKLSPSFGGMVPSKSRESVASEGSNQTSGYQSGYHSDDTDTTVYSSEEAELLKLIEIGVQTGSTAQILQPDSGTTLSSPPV
Chain of Ba/F3-FGFR3-transfected cells (P22607 whole entry, change not shown): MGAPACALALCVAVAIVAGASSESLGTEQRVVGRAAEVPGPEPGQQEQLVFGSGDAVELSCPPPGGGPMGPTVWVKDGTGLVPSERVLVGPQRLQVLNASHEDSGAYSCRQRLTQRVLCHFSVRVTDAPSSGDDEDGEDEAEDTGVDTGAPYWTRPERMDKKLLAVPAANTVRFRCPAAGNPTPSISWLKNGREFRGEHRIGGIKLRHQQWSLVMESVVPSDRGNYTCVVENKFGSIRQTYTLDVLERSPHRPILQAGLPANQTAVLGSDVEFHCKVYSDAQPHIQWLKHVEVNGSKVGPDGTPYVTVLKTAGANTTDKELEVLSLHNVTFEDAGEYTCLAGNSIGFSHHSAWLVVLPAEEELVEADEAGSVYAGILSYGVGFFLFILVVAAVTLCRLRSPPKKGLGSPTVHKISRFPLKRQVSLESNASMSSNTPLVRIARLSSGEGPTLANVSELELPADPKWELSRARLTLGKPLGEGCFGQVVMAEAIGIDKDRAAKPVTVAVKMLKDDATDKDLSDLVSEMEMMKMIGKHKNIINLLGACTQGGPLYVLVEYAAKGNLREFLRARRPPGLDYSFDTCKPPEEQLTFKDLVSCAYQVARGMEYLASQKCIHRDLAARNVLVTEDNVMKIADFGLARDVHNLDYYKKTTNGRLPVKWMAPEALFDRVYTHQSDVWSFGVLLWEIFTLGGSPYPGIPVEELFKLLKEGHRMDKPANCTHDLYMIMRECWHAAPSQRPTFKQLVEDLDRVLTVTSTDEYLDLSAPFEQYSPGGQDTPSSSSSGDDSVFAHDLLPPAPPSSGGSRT
Chain of FGFR3 (h) (P22607 23-806): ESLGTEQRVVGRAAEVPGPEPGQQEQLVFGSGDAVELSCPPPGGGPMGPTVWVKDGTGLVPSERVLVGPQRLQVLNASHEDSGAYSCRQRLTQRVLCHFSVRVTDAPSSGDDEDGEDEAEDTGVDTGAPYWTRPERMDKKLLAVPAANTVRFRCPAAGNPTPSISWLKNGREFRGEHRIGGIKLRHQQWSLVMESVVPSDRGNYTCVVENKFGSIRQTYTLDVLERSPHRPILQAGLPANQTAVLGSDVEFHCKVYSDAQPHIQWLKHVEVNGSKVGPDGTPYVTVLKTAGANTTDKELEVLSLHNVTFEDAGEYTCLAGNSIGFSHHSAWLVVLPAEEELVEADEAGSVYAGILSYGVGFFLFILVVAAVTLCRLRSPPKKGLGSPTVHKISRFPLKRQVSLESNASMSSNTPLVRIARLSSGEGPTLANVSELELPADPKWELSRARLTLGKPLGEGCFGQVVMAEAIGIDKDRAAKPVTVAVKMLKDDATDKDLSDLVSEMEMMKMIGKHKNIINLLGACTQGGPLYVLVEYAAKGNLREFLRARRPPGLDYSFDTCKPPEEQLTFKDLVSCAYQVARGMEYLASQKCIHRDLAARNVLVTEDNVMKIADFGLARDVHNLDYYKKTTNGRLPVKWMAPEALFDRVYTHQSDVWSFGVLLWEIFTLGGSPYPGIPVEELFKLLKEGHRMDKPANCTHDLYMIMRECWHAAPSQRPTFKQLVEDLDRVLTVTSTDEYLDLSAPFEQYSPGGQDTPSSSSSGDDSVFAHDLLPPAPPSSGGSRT
Chain of FGFR2 (h) (P21802 22-821): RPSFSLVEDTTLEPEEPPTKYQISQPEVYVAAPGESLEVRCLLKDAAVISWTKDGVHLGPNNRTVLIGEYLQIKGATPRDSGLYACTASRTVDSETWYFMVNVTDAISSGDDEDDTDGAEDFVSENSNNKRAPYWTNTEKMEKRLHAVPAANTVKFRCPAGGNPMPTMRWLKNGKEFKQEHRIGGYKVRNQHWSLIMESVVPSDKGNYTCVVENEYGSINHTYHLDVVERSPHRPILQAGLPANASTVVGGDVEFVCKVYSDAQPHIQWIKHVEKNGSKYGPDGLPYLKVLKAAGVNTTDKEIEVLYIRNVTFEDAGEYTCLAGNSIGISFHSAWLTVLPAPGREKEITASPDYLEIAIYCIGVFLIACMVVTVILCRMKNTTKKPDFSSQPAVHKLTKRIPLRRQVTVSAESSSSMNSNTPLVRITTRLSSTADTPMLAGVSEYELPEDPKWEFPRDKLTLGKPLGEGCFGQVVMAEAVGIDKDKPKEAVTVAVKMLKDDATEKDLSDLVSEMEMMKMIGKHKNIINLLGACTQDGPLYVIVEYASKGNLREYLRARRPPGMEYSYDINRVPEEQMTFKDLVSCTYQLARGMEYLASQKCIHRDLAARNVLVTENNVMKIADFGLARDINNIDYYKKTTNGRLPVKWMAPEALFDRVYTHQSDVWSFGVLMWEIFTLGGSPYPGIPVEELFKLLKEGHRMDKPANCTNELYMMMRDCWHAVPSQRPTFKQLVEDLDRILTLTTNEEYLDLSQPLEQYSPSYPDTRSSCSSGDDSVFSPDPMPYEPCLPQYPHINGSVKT

| SMILES | IC50 (FGFR2 (h)) [nM] | IC50 (FGFR3 (h)) [nM] | IC50 (KDR (h) (VEGFR2)) [nM] | BAF3-FGFR 3 (MIN IL3) 384 well pIC50 [1] | BAF3-FGFR 3 (MIN IL3) 96 well pIC50 [1] | melting point [°C] | IC50 [2] [nM] | BAF3-FLT3 (PLUS IL3) 384 well pIC50 [2] |
| --- | --- | --- | --- | --- | --- | --- | --- | --- |
| COCC(CN(c1cc(OC)cc(OC)c1)c1ccc2ncc(-c3cccnc3)nc2c1)OC(C)=O (single isomer, unassigned) [Compound 52] | 91.2 | 28.8 | > 1000 | ~6.17 | – | – | > 10000 | – |
| COCC(CN(c1cc(OC)cc(OC)c1)c1ccc2ncc(-c3cccnc3)nc2c1)OC(C)=O (single isomer, unassigned) [Compound 76] | 20 | 5.75 | 389 | 6.59 | – | – | – | <5 |
| COc1cc(OC)cc(N(CC2CC2)c2ccc3ncc(N4CCN(CCO)CC4)nc3c2)c1 [Compound 49] | 398 | 126 | 3980 | <5 | 5.5 | – | > 10000 | – |
| COc1cc(OC)cc(N(CCO)c2ccc3ncc(N4CCC(CN)CC4)nc3c2)c1 [Compound 84] | 91.2 | 40.7 | > 1000 | <5 | – | 159 | – | – |
| COc1cc(OC)cc(N(CC2CC2)c2ccc3ncc(-c4nnc(C)o4)nc3c2)c1 [Compound 85] | 380 | 191 | 8320 | <5 | 5.06 | 134 | – | – |
| COc1cc(OC)cc(N(CC2CC2)c2ccc3ncc(-c4ccc5[nH]ccc5c4)nc3c2)c1 [Compound 86] | 1820 | 417 | > 10000 | <5 | 5.4 | 181 | – | – |
| COc1cc(OC)cc(N(CC2CC2)c2ccc3ncc(-c4ccc5c(c4)OCO5)nc3c2)c1 [Compound 87] | 955 | 209 | > 10000 | <5.4 | – | 144 | – | – |
| COc1cc(OC)cc(N(CC2CC2)c2ccc3ncc(-c4ccnc(N5CCOCC5)c4)nc3c2)c1 [Compound 90] | 676 | 282 | > 10000 | – | 5.09 | 162 | – | – |
| COc1cc(OC)cc(N(CC2CC2)c2ccc3ncc(-c4cccc(N5CCOCC5)c4)nc3c2)c1 [Compound 92] | 661 | 263 | 1950 | <5 | <5 | 155 | – | – |
| COc1cc(OC)cc(N(CC2CC2)c2ccc3ncc(-n4cccn4)nc3c2)c1 [Compound 95] | > 10000 | 1450 | > 10000 | <5 | <5 | 160 | – | – |
| COc1cc(OC)cc(N(CCNC(C)C)c2ccc3ncc(C(=O)NCCN4CCOCC4)nc3c2)c1 [Compound 160] | 57.5 | 91.2 | > 1000 | – | – | – | > 10000 | – |

The next lines start with results.

| IC50 (FGFR2 (h)) [nM] | IC50 (FGFR3 (h)) [nM] | IC50 (KDR (h) (VEGFR2)) [nM] | BAF3-FGFR 3 (MIN IL3) 384 well pIC50 [1] | BAF3-FGFR 3 (MIN IL3) 96 well pIC50 [1] | melting point [°C] | SMILES | IC50 [2] [nM] | BAF3-FLT3 (PLUS IL3) 384 well pIC50 [2] |
| --- | --- | --- | --- | --- | --- | --- | --- | --- |
| 15.1 | 9.55 | 126 | 6.57 | – | – | COc1cc(OC)cc(N(CCCNCC(F)(F)F)c2ccc3ncc(-c4ccn(C)c4)nc3c2)c1 [Compound 5] | > 10000 | – |
| 6.31 | 16.6 | 447 | 5.83 | – | – | COc1cc(OC)cc(N(CCNC(C)C)c2ccc3ncc(N4CCC(CN)CC4)nc3c2)c1 [Compound 67] | > 10000 | – |
| 9.12 | 12 | 513 | 7.12 | – | – | COc1cc(OC)cc(N(CCNC(C)C)c2ccc3ncc(-n4cnc(CO)c4)nc3c2)c1 [Compound 77] | > 10000 | – |
| 1150 | 380 | > 10000 | <5 | <5 | 234 | COc1cc(OC)cc(N(CC2CC2)c2ccc3ncc(-c4cnc5[nH]ccc5c4)nc3c2)c1 [Compound 88] | – | – |
| 8.71 | 18.6 | 309 | 5.57 | – | – | COc1cc(OC)cc(N(CCCNCCCO)c2ccc3ncc(-c4ccnc(C(=O)NCCCCN)c4)nc3c2)c1 [Compound 132] | ~5500 | – |
| 6.17 | 2.45 | 170 | 6.3 | – | 179 | COc1cc(OC)cc(N(CCCO)c2ccc3ncc(-c4cnc(N5CCN(C)CC5)c(C)c4)nc3c2)c1 [Compound 135] | – | – |
| 8.32 | 8.51 | 275 | ~5.83 | – | 172 | COc1cc(OC)cc(N(CCCNC(C)C)c2ccc3ncc(-c4ccnc(NC(=O)OC(C)(C)C)c4)nc3c2)c1 [Compound 137] | – | – |
| ~31.6 | 16.2 | 759 | 5.04 | – | – | COc1cc(OC)cc(N(CCO)c2ccc3ncc(-c4ccnc(C(=O)NCCCCCN)c4)nc3c2)c1 [Compound 138] | – | – |
| 39.8 | 11.5 | 692 | 5.72 | – | – | COc1cc(OC)cc(N(CCO)c2ccc3ncc(-c4ccnc(C(=O)NCCCCCO)c4)nc3c2)c1 [Compound 139] | > 10000 | – |
| 3.39 | 2.51 | 52.5 | 6.4 | – | – | COc1cc(OC)cc(N(CCCNC(C)C)c2ccc3ncc(-c4ccnc(N)c4)nc3c2)c1 [Compound 143] | 6610 | – |
| 7.41 | 17.8 | – | 6.17 | – | 122 | COc1cc(OC)cc(N(CCNC(C)C)c2ccc3ncc(-c4ccnn4C4CCCCO4)nc3c2)c1 (stereo not drawn) [Compound 188] | – | – |
| 2.29 | 6.17 | 126 | ~7.1 | – | – | COc1cc(OC)cc(N(CCNC(C)C)c2ccc3ncc(-c4ccn[nH]4)nc3c2)c1 [Compound 189] | – | – |
